SMILES strings stand for the structures. Several values for one entry are separate records, joined by “and”; a condition that tells them apart may be missing. Equal entries are not always repeated.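 Briefly, cells in 96-well plates were exposed to five compound concentrations for 48 h, and endpoints were estimated by linear interpolation. GI50: concentration for 50% inhibition of growth. TGI is the concentration that stops growth completely.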

Test systems include BT-549 breast; LOX IMVI melanoma; OVCAR-4 ovarian; HS 578T breast; K-562 leukemia; MOLT-4 leukemia; HCT-116 colon; NCI-H522 lung; KM12 colon; SF-295 CNS.
What all share (experiment): inhibition of tumour cell growth, NCI panel, 48 h

`Nc1[nH]c(=S)[nH]c(=O)c1N=Nc1c(Br)cc(S(N)(=O)=O)cc1Br`: the TGI in the test with BT-549 breast, with LOX IMVI melanoma, with OVCAR-4 ovarian, in the test with HS 578T breast, in the test on K-562 leukemia and with MOLT-4 leukemia was above 100 µM each time. Also, the TGI with HCT-116 colon, in the test with NCI-H522 lung, in the test with KM12 colon and in the test with SF-295 CNS was above 100 µM each time.
In the case of `Fc1ccc(Nc2ccnc(N3CCN(c4ccnc5cc(Cl)ccc45)CC3)n2)cc1`, the GI50 in the test on BT-549 breast was 2.95 µM; in the test with LOX IMVI melanoma, 1.82 µM; in the test on OVCAR-4 ovarian, 2.36 µM; with HS 578T breast, 2.83 µM; in the test on K-562 leukemia, 2.18 µM; with MOLT-4 leukemia, 2.76 µM. For the same compound, the GI50 with HCT-116 colon was 1.97 µM; with NCI-H522 lung it was 2.03 µM; in the test with KM12 colon it was 2.33 µM; with SF-295 CNS it was 1.33 µM. The TGI was 8.57 µM in the test on BT-549 breast; 3.62 µM with LOX IMVI melanoma; above 100 µM in the test with OVCAR-4 ovarian; 39 µM in the test with HS 578T breast; 6.62 µM with K-562 leukemia; 8.37 µM with MOLT-4 leukemia. Moreover, the TGI in the test on HCT-116 colon was determined as 5.24 µM; in the test on NCI-H522 lung, 5.38 µM; in the test with KM12 colon it was 6.66 µM; in the test with SF-295 CNS it was 3.2 µM.
Consider `CCN(CC(O)COc1ccc2c(c1)[n+]([O-])nc(N)[n+]2[O-])C(C)=O` (configuration not stated), for which the TGI with BT-549 breast, in the test with LOX IMVI melanoma, in the test with OVCAR-4 ovarian, in the test on HS 578T breast, in the test with K-562 leukemia and with MOLT-4 leukemia was above 100 µM throughout. The TGI in the test with HCT-116 colon, in the test with NCI-H522 lung, with KM12 colon and with SF-295 CNS was above 100 µM throughout.
As for `Cc1c(-c2c(F)cc(C(N)=O)c3[nH]c4c(c23)CC[C@H](C(C)(C)O)C4)cccc1-n1c(=O)c2cccc(F)c2n(C)c1=O`, the GI50 in the test on BT-549 breast is 3.93 µM; with LOX IMVI melanoma it was 3.13 µM; in the test with OVCAR-4 ovarian, 6.31 µM; in the test with HS 578T breast, 4.62 µM; with K-562 leukemia, 3.61 µM; with MOLT-4 leukemia, 1.77 µM. For the same compound, the GI50 in the test on HCT-116 colon is 2.66 µM; in the test on NCI-H522 lung it was 2.81 µM; in the test on KM12 colon, 0.399 µM; in the test with SF-295 CNS it was 4.36 µM. The TGI with BT-549 breast was 63 µM; in the test with LOX IMVI melanoma, above 100 µM; in the test with OVCAR-4 ovarian it was above 100 µM; with HS 578T breast, above 100 µM; in the test on K-562 leukemia it was above 100 µM; with MOLT-4 leukemia it was 6.58 µM. In addition, the TGI is above 100 µM with HCT-116 colon, 32.9 µM in the test on NCI-H522 lung, above 100 µM in the test on KM12 colon and 39.6 µM with SF-295 CNS.
`O=[N+]([O-])c1ccc(NC(c2ccccc2)c2ccc3cccnc3c2O)cc1` (configuration not stated): the GI50 in the test on BT-549 breast was 0.601 µM; in the test on LOX IMVI melanoma it was 0.293 µM; in the test on OVCAR-4 ovarian it was 0.331 µM; in the test with HS 578T breast, 0.52 µM; in the test on K-562 leukemia, 0.376 µM; in the test with MOLT-4 leukemia, 0.344 µM. The GI50 in the test on HCT-116 colon is 0.31 µM; in the test on NCI-H522 lung, 0.392 µM; with KM12 colon, 0.449 µM; in the test on SF-295 CNS it was 0.314 µM. The TGI in the test on BT-549 breast was 43.2 µM; with OVCAR-4 ovarian, above 100 µM; with HS 578T breast, above 100 µM; in the test with K-562 leukemia it was above 100 µM; with MOLT-4 leukemia it was above 100 µM; in the test on HCT-116 colon, above 55.9 µM. Besides, the TGI in the test with NCI-H522 lung, with KM12 colon and in the test on SF-295 CNS was above 100 µM each time.
For the compound `OCC1OC(N2CCN(C3OC(CO)C(O)C(O)C3O)CC2)C(O)C(O)C1O` (configuration not stated), the TGI with BT-549 breast, in the test with LOX IMVI melanoma, in the test with OVCAR-4 ovarian, with HS 578T breast, in the test on K-562 leukemia and in the test on MOLT-4 leukemia was above 100 µM throughout. Also, the TGI in the test with HCT-116 colon, in the test on NCI-H522 lung, with KM12 colon and in the test with SF-295 CNS was above 100 µM in each case.
As for `COc1cc2cc(C(=O)Nc3ccccc3)c(N)nc2cc1OC`, the GI50 was 25.1 µM with BT-549 breast; 42.3 µM with LOX IMVI melanoma; 29.8 µM in the test with OVCAR-4 ovarian; 62.8 µM in the test on HS 578T breast; 41.7 µM with K-562 leukemia; 38.5 µM in the test on MOLT-4 leukemia. Further, the GI50 in the test with HCT-116 colon is 40.4 µM; in the test with NCI-H522 lung, 32.7 µM; with KM12 colon, 46 µM; with SF-295 CNS it was 46.7 µM. In addition, the TGI with BT-549 breast, in the test on LOX IMVI melanoma, in the test on OVCAR-4 ovarian, with HS 578T breast, with K-562 leukemia and with MOLT-4 leukemia was above 100 µM each time. For the same compound, the TGI in the test with HCT-116 colon, in the test with NCI-H522 lung, in the test with KM12 colon and in the test with SF-295 CNS was above 100 µM in each case.
As for `COc1ccc(C2CC(=O)Nc3c2c(C)nn3-c2nc3ccccc3[nH]2)cc1OC` (configuration not stated), the GI50 is 4.19 µM with BT-549 breast; 4.51 µM with LOX IMVI melanoma; 6.42 µM in the test on OVCAR-4 ovarian; 4.49 µM in the test with HS 578T breast; 4.81 µM with K-562 leukemia; 0.0405 µM with MOLT-4 leukemia. Also, the GI50 in the test with HCT-116 colon was 3.31 µM; in the test on NCI-H522 lung, 3.83 µM; in the test with KM12 colon, 3.7 µM; in the test on SF-295 CNS it was 1.77 µM. Moreover, the TGI with BT-549 breast is 33.7 µM; with LOX IMVI melanoma it was 19.1 µM; with OVCAR-4 ovarian, above 100 µM; with HS 578T breast, above 100 µM; with K-562 leukemia, above 100 µM; with MOLT-4 leukemia, 0.27 µM. In addition, the TGI is 14.9 µM in the test on HCT-116 colon, 25.6 µM with NCI-H522 lung, 14.1 µM with KM12 colon and 6.91 µM with SF-295 CNS.
In the case of `Cc1cc(C(=O)NOCCO)c(Nc2ccc(I)cc2F)n(C)c1=O`, the GI50 with BT-549 breast is above 100 µM; in the test with HS 578T breast, > 10 µM and 37.2 µM; in the test with K-562 leukemia, 0.321 µM and 0.19 µM; in the test on MOLT-4 leukemia, above 100 µM; in the test on HCT-116 colon, 0.011 µM and 0.0164 µM; in the test on NCI-H522 lung, > 10 µM and 13.7 µM. Besides, the GI50 in the test with KM12 colon is 0.0263 µM and < 0.0161 µM; in the test with SF-295 CNS it was above 100 µM. Further, the TGI in the test with BT-549 breast, in the test with LOX IMVI melanoma, with OVCAR-4 ovarian, in the test on HS 578T breast, in the test on K-562 leukemia and with MOLT-4 leukemia was above 100 µM in each case. The TGI in the test on HCT-116 colon, in the test on NCI-H522 lung, with KM12 colon and with SF-295 CNS was above 100 µM each time.

For the origin of these results see PubChem BioAssay (NCI).
